Test [1] concerns oral mucosa of mouse tongue. Kind of test: Topical radioprotection of the oral mucosa of mouse tongue (mucosal ulceration endpoint). In kind it is in vivo, mice of the inbred C3H/Neu strain. The protocol: Mice of the inbred C3H/Neu strain were sourced from a breeding colony at the Medical Faculty Carl Gustav Cams, Dresden, Germany. The animals were bred and housed under specified pathogen-free conditions. Housing was under controlled conditions of humidity (30-50%) and temperature (21° C.-24° C.). An automated light programme regulated a 12/12-hour light/dark rhythm with lights on from 6 am to 6 pm. The mice were kept in size 3 Macrolon cages, maximum of 10 per cage, on sawdust bedding. Standard mouse diet (Altromin 1326, Altrogge) and filtered city tap water from standard perspex drinking bottles were provided ad libitum.
A 3 mm×3 mm field at the middle of the lower surface of the mouse tongue was irradiated with 25 kV x-rays from a Darpac 150-MC device (Forward Raytech Ltd, Swinburne, UK) operated with a tube current of 20 milliamps yielding a dose rate of 3.78 Gy per minute and a focus-skin distance of 15 cm. Anaesthetised mice (sodium pentabarbitone; 60 mg per kg) were placed in a supine position in the central cylindrical hole (diameter 25 mm) of a pre-warmed aluminium block (approximately 35° C.). The tongue was guided through a hole (diameter 3 mm) in roof of the block by use of forceps, and the upper surface of the tongue was fixed to the outer surface of the block with double-sided adhesive tape. The head was supported by a polystyrene wedge to avoid traction of the base of the tongue and consequent hypoxia. The collimator was a 1 mm thick aluminium plate with a 3×3 mm^2 window positioned centrally over the lower surface of the tongue. Groups of 10 mice, were irradiated with 5 different doses in the range of 10-20 Gy.
One hour prior to irradiation, 10 microlitres of formulation was applied to the lower surface of the tongue of anaesthetised mice using a displacement micropipette. Thirty minutes later, a second 10 microlitre aliquot of the formulation was applied and the mice irradiated thirty minutes later.
Stock solutions of the appropriate drug in propylene glycol or water were diluted with an aqueous solution of Poloxamer 407 gel (BASF Lutrol F 127) and/or a solution of hydroxypropyl cellulose (approx average MW 80,000; Aldrich cat no 435007) in propylene glycol and with water and/or propylene glycol, producing each of two formulations: • Formulation 1—gel, which contained 10 or 30 mM drug in 20% Poloxamer 407 and 1% hydroxylpropyl cellulose in 30% propylene glycol in water, and • Formulation 2—Liquid, which contained 10, 30 or 60 mM drug in propylene glycol […] of 2% hydroxypropyl cellulose. Scoring and Data Analysis
At various times after irradiation, the lower surface of the tongue of anaesthetised mice was examined daily. The quantal endpoint used was mucosal ulceration, corresponding to confluent mucositis RTOG/EORTC grade 3. The data plotted in the example figures is the percentage of a group of 10 mice in which the endpoint of mucosal ulceration was scored for at least 2 consecutive days. Radiation dose effect curves were generated with a single parameter sigmoidal relationship (logistic function
[formula] using the Prism 5.0 curve-fitting programme to generate the ED50 value, which corresponds to the interpolated radiation dose at which 50% of the mice in the group reached the mucosal ulceration endpoint.

Test [2] has as its system transformed human keratinocyte cell line (FEP 1811). Kind of test: Clonogenic survival cell culture assay for radioprotective activity (12 Gy 137Cs gamma irradiation). The settings on record: 12 Gy; for DMF10 (dose modification factor at a concentration of 10 microM of radioprotector): 10 microM radioprotector; for DMFm (dose modification factor at maximum protection): DMF=Dp/Dc at survival level Sm; for PF (protection factor = Sm/So): survival at maximum protection vs irradiation only. Type of test: cell-based. The method in brief:
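Survival after irradiation gave protection factor PF = Sm/So (maximum-protection survival over irradiation-only survival). DMF = Dp/Dc is the ratio of doses giving survival Sm with and without radioprotector. DMF10 uses survival at 10 microM radioprotector in place of Sm.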

Where [3] appears, read: 10 mM drug in Formulation 1, topical to tongue.
The mark [4] stands for this setting: 10 mM drug in Formulation 1 vs vehicle.
Where [5] appears, read: 30 mM drug in Formulation 2, topical to tongue.
[6] abbreviates: 30 mM drug in Formulation 2 vs vehicle.

With `CN1CCN(c2ccc3nc(-c4ccc5nc(-c6ccccn6)[nH]c5c4)[nH]c3c2)CC1` [Example 2, 2-(5′-(5″-(4′″-Methylpiperazin-1′″-yl)benzimidazol-2″-yl)benzimidazol-2′-yl)pyridine], in test [1] (setting [3]), the “ED50 (radiation dose at which 50% of the mice reached mucosal ulceration)” value is on record as 14.4 Gy. The dose reduction factor in test [1] (setting [4]) was found to be 1.20. Also, in test [2], the “DMF10 (dose modification factor at a concentration of 10 microM of radioprotector)” value (“DMF10” below) is recorded as 1.93, the “DMFm (dose modification factor at maximum protection)” value (“DMFm” for short) was found to be 2.10 and the “PF (protection factor = Sm/So)” value came out at 18.2.
In the case of `c1ccc(-c2nc3ccc(-c4nc5ccc(N6CCOCC6)cc5[nH]4)cc3[nH]2)nc1` [Example 19, 2-(5′-(5″-Morpholinobenzimidazol-2″-yl)benzimidazol-2′-yl)pyridine], the “ED50 (radiation dose at which 50% of the mice reached mucosal ulceration)” value in test [1] (setting [3]) is listed as 14.3 Gy. This compound also registered a dose reduction factor in test [1] (setting [4]) of 1.19. The “ED50 (radiation dose at which 50% of the mice reached mucosal ulceration)” value in test [1] (setting [5]) is 15.2 Gy. The same compound had a dose reduction factor in test [1] (setting [6]) of 1.18. In addition, in test [2], the “DMF10” value was determined as 1.66, the “DMFm” value is given as 2.26 and the “PF (protection factor = Sm/So)” value turned out to be 69.6.
`OC1CCN(c2ccc3nc(-c4ccc5nc(-c6cc7ccccc7cn6)[nH]c5c4)[nH]c3c2)CC1` [Example 23, 3-(5′-(5″-(4′″-Hydroxypiperidin-1′″-yl)benzimidazol-2″-yl)benzimidazol-2′-yl)isoquinoline]: the “ED50 (radiation dose at which 50% of the mice reached mucosal ulceration)” value in test [1] (60 mM drug in Formulation 3, topical to tongue) worked out at 14.6 Gy. In test [1] (60 mM drug in Formulation 3 vs blank formulation), this compound returned a dose reduction factor of 1.13. Further, in test [2], the “DMF10” value is given as 2.13, the “DMFm” value is given as 2.26 and the “PF (protection factor = Sm/So)” value came to 36.5.
As for `Cc1ccc(-c2nc3ccc(-c4nc5ccc(N6CCN(C)CC6)cc5[nH]4)cc3[nH]2)nc1` [Example 6, 5-Methyl-2-(5′-(5″-(4′″-methylpiperazin-1′″-yl)benzimidazol-2″-yl)benzimidazol-2′-yl)pyridine], the “ED50 (radiation dose at which 50% of the mice reached mucosal ulceration)” value in test [1] (setting [5]) stood at 14.6 Gy. The same compound came in with a dose reduction factor in test [1] (setting [6]) of 1.13. In addition, in test [2], the “DMF10” value came out at 2.43, the “DMFm” value is on record as 2.52 and the “PF (protection factor = Sm/So)” value stood at 26.2.

Source of the values: patent publication USRE46943E1, “Radioprotector compounds and methods” (PETER MACCALLUM CANCER INSTITUTE, priority 2010, dated 2018).
